Assay results as given in patent US8569511B2, “Substituted 3-(1H-benzo[d]imidazol-2-yl)-1H-indazole analogs as inhibitors of the PDK1 kinase” (University of Utah Research Foundation, priority 2011, dated 2013).
pIC50: −log10 of the molar value. Like-named read-outs stand apart in the source and are kept apart here. Values belong to the molecule of their own block, whether it stands above or below them.

Assays:
HEC-1A cells = test: Cell viability assay (ATP-lite); format: cell-based; conditions: for pIC50: Homo sapiens
Procedure: (§1) AN3-CA (PTEN-deficient), RL95-2 (PTEN-deficient), and HEC-1A (PTEN-wild type) cells were plated in 45 μl of RPMI-1640 media supplemented with 10% FBS and 1% Pen/Strep at a density of 1000 cells per well in white 384-well plates. Cells were allowed to attach by incubation overnight at 37° C. and 5% CO2. Test compounds were diluted to 10× concentrations in RPMI-1640 media (containing 3% DMSO) and 5 μl 1 of these dilutions were added in triplicate to the appropriate wells containing the cells. The plates containing the drug-treated cells and appropriate controls were incubated for 96 hours. At the end of the incubation, 40 μl of ATP-lite (PerkinElmer, Inc., Waltham, Massachussetts) reagent were added to each well and luminescence signal was measured on an EnVision microplate reader.
(§2) Alternatively, AN3-CA, RL95-2, HEC-1A endometrial cancer cell lines were plated at a density of 2000 cells per well in a 96 well culture plate in 45 μl of cell culture media and incubated overnight. […] Vehicle treated controls were also included and each condition was applied in quadruplicate. Following 96 hours of incubation, 35 μL of ATP-lite (PerkinElmer) reagent was added each well and allowed to react for 10 minutes. Plate was read on a Envision 2104 MultiLabel reader (PerkinElmer).
(§3) IC50 values are determined using GraphPad Prism 5 software. The data were entered as an X-Y plot into the software as percent inhibition for each concentration of the drug. The concentration values of the drug were log transformed and the nonlinear regression was carried out using the “sigmoidal dose-response (variable slope)” option within the GraphPad software to model the data and calculate IC50 values.

RL95-2 cells = test: Cell viability assay (ATP-lite); format: cell-based; conditions: for pIC50: Homo sapiens
Procedure: as §1, §2, §3

SK-OV-3 = test: Cell viability assay, cancer cell line panel; format: cell-based; conditions: Homo sapiens, mutation PIK3CA
NCCIT = test: Cell viability assay, cancer cell line panel; format: cell-based; conditions: Homo sapiens, mutation PTEN
HCT-116 = test: Cell viability assay, cancer cell line panel; format: cell-based; conditions: Homo sapiens, mutation KRAS, PIK3CA
AGS = test: Cell viability assay, cancer cell line panel; format: cell-based; conditions: Homo sapiens, mutation KRAS, PIK3CA
BT549 = test: Cell viability assay, cancer cell line panel; format: cell-based; conditions: Homo sapiens, BT-549; mutation PTEN
786-O = test: Cell viability assay, cancer cell line panel; format: cell-based; conditions: Homo sapiens, 786-0; mutation PTEN
PC-3 = test: Cell viability assay, cancer cell line panel; format: cell-based; conditions: Homo sapiens, mutation PTEN
MCF-7 = test: Cell viability assay, cancer cell line panel; format: cell-based; conditions: Homo sapiens, MCF7; mutation PIK3CA
H1975 = test: Cell viability assay, cancer cell line panel; format: cell-based; conditions: Homo sapiens, NCI-H1975; mutation PIK3CA
BT-20 = test: Cell viability assay, cancer cell line panel; format: cell-based; conditions: Homo sapiens, mutation PIK3CA
LNCap = test: Cell viability assay, cancer cell line panel; format: cell-based; conditions: Homo sapiens, mutation PTEN
[1] = system: 82 cell lines representing more than 20 tumor types; test: Screen of a further 82 cell lines (8-point serial dilution); format: cell-based
Excerpt: (§4) In order to determine if there were additional cell lines that were profoundly sensitive to this compound, a further 82 cell lines were screened which represented more than 20 different tumor types of origin. […] Without wishing to bound by a particular theory, these three additional cell lines are all acute myeloid leukemic lines that have different activating mutations in oncogenes that have been associated with elevated PI3K activity. MV4-11 has the FLT3 internal tandem duplication (ITD) and Kasumi-1 has amplified and mutated c-kit as well as the AML-ETO gene fusion. […] All three lines have wild-type PTEN but have shown to express very low levels of PTEN protein, which makes them functionally deficient for PTEN.

KG-1 cell line = test: Screen of further cell lines; format: cell-based; conditions: acute myeloid leukemic line
Excerpt: as §4

Kasumi cell line = test: Screen of further cell lines; format: cell-based; conditions: acute myeloid leukemic line
Excerpt: as §4

MV4-11 cell line = test: Screen of further cell lines; format: cell-based; conditions: acute myeloid leukemic line
Excerpt: as §4

[2] = system: phosphorylation of the ribosomal S6 protein; test: Western blot of phospho-S6 in excised xenograft tumors; format: in vivo, athymic nude mice; conditions: western blot of tumors after the study, 50 mg/kg IP
Procedure: Cells were washed with PBS and whole cell lysates were prepared by incubating cells in […] (Invitrogen Corporation, Carlsbad, Calif.) supplemented with Protease Inhibitor Cocktail (Roche Applied Science, a division of Roche Diagnostics Corporation, Indianapolis, Ind.) and Phosphatase Inhibitor Cocktail (Roche) on ice for 30 minutes. After centrifuging the lysates at 12,000 rpm for 10 minutes at 4° C., the supernatant was collected. Protein concentration was determined using BCA Assay. The same amounts of protein were run on NuPAGE 4-12% Bis-Tris Gel, and then transferred onto a PVDF membrane. […]
The in vivo effects of compounds were determined in a mouse subcutaneous xenograft tumor model wherein AN3-CA cells were implanted subcutaneously into the hind flank of athymic nude mice. […] Tumor volume was determined using the formula L×W2×0.5, where L is the longest length, and W is the shortest length. Tumor volume and body weight was measured twice a week.
Following the study, the tumors from the vehicle and test compound groups were removed from the animals and analyzed for phosho-S6 levels by western blot (FIG. 10C). […]

pIC50 (SK-OV-3): 5.72 | pIC50 (NCCIT): 5.68 | pIC50 (HCT-116): 5.60 | pIC50 (AGS): 5.56 | pIC50 (BT549): 5.50 | pIC50 (786-O): 5.22 | pIC50 (PC-3): 5.12 | pIC50 (MCF-7): 5.06 | pIC50 (H1975): 5.01 | pIC50 (BT-20): 4.88 | pIC50 (LNCap): 4.61 | IC50 in 9 of the 82 cell lines ([1]; 9 cell lines): hundreds of nano-molar range | pIC50 ([1]; 68 of the cell lines, 10 μM down to 3 nM, read-out: IC50 in 68 of the 82 cell lines): < 6.00 | pIC50 ([1]; read-out: IC50 in 5 cell lines): > 7.00
SMILES: O=C(Nc1ccc2[nH]nc(-c3nc4ccc(N5CCOCC5)cc4[nH]3)c2c1)C1CC1(F)F (stereo not shown) [Compound 1, 2,2-difluoro-N-(3-(5-morpholino-1H-benzo[d]imidazol-2-yl)-1H-indazol-5-yl)cyclopropanecarboxamide]
Potency in cell viability assay, HEC-1A (in words) (HEC-1A cells; FIG. 6): relatively inactive | pIC50 (HEC-1A cells; HEC-1-A, Table VI panel, mutation KRAS, PIK3CA, read-out: IC50 cell viability, Hec-1A): 5.42 | pIC50 (HEC-1A cells; HEC-1A (PTEN-wild type), read-out: Cell Viability IC50 HEC-1A): 5.42 | Potency in cell viability assay, RL-95-2 (in words) (RL95-2 cells; FIG. 6): moderately potent | pIC50 (RL95-2 cells; RL95-2, Table VI panel, mutation PTEN, HRAS, read-out: IC50 cell viability, RL95-2): 6.18 | pIC50 (RL95-2 cells; RL95-2, read-out: IC50 cell viability, RL-95-A): 6.32 | pIC50 (RL95-2 cells; RL95-2 (PTEN mutation), read-out: Cell Viability IC50 RL95-2): 6.32 | Sensitivity of KG-1 cell line (KG-1 cell line): very sensitive | Sensitivity of Kasumi cell line (Kasumi cell line): very sensitive | Sensitivity of MV4-11 cell line (MV4-11 cell line): very sensitive

SMILES: CC1CN(c2ccc3nc(-c4n[nH]c5ccc(NC(=O)C6CC6(F)F)cc45)[nH]c3c2)CCO1 (stereo not shown) [Compound 2, 2,2-difluoro-N-(3-(5-(2-methylmorpholino)-1H-benzo[d]imidazol-2-yl)-1H-indazol-5-yl)cyclopropanecarboxamide]
Phospho-S6 levels in tumors compared to the vehicle group [2]: down-regulation of phospho-S6 levels
